The results in this text go back to patent US20020127263A1, “Peroxisome proliferator-acitvated receptor gamma ligand eluting medical device” (priority 2001, published 2002).

Data set [1] concerns Human coronary smooth muscles cells (HCASMC). Description: HCASMC proliferation inhibition by Ciglitazone. It counts as cell-based. Conditions: day four, both cell culture schemes, FIG. 1a. On the procedure:
Human coronary smooth muscles cells (HCASMC) were seeded in 24 well polystyrene tissue culture plates at a density of 5×10^3 cells per well. Two different feeding and reading strategies were employed. Strategy 1: Cells were plated in cell culture media containing various concentrations of Ciglitazone and incubated at 37° C. for 48 hours. After the initial 48 hour incubation, the Ciglitazone containing plating media was changed and the cells were fed with drug free media and incubated for an additional 48 hours and then read. Strategy 2: Cells were plated in cell culture media containing various concentrations of Ciglitazone and incubated at […] for 48 hours. After the initial 48 hour incubation, the Ciglitazone-containing plating media was changed and the cells were fed with Ciglitazone-containing media and incubated for an additional 48 hours and then read. On day four cultures were analyzed to determine the proliferation inhibition effects of Ciglitazone. FIG. 1a graphically depicts the percent inhibition at Ciglitazone levels between 0.001 μg/mL to 50 μg/mL for both cell culture schemes. It can be seen from FIG. 1a that significant HCASMC inhibition (>50% inhibition) begins at a dosage of 10 μg/mL and rises dramatically to nearly 100% at 50 μg/mL. FIG. 1b graphically depicts the same results in bar graph form based on cell counts.

In a further data set the test system is HCASMCs. The data set can be described thus: Ciglitazone cytotoxicity against HCASMCs (lactate dehydrogenase). The settings on record: HCASMC, 0.001 μg/mL to 10 μg/mL Ciglitazone, after 24 hours, FIG. 1c. It counts as cell-based, Human. As for the experimental part:
Ciglitazone cytotoxicity against HCASMCs was evaluated by seeding 24 well cell culture plates with 5.0×10^5HCASM cells/mL of cell culture media containing from 0.001 μg/mL to 10 μg/mL of Ciglitazone. Samples were taken after 24 hours and tested for lactate dehydrogenase […] concentration using methods known to those having ordinary skill in the art. Elevated LDL levels indicates cytotoxicity. FIG. 1c graphically depicts the cytotoxicity testing results.

The subject of data set [2] is Human coronary artery endothelial cells (HCAEC). Description: HCAEC proliferation inhibition by Ciglitazone. The settings on record: Endothelial cell, day four, both cell culture schemes, FIG. 2a. In kind it is cell-based. On the procedure: Human coronary artery endothelial cells (HCAEC) were seeded in 24 well polystyrene tissue culture plates at a density of 5×10^3 cells per well. Two different feeding strategies and reading strategies were employed. Strategy 1: Cells were plated in cell culture media containing various concentrations of Ciglitazone and incubated at 37° C. for 48 hours. After the initial 48 hour incubation, the Ciglitazone containing plating media was changed and the cells were fed with drug free media and incubated for an additional 48 hours and then read. Strategy 2: Cells were plated in cell culture media containing various concentrations of Ciglitazone and incubated at […] for 48 hours. After the initial 48 hour incubation, the Ciglitazone-containing plating media was changed and the cells were fed with Ciglitazone-containing media and incubated for an additional 48 hours and then read. On day four cultures were analyzed to determine the proliferation inhibition effects of Ciglitazone. […] graphically depicts the percent inhibition at Ciglitazone levels between 0.001 μg/mL to 50 μg/mL for both cell culture schemes. It can be seen from FIG. 2a that significant HCAEC inhibition (>50% inhibition) begins at a dosage of 5 μg/mL and rises dramatically to nearly 100% at 10 μg/mL. FIG. 2b graphically depicts the same results in bar graph form based on cell counts.

The subject of the next data set is HCAECs. The data set can be described thus: Ciglitazone cytotoxicity against HCAECs (lactate dehydrogenase). In kind it is cell-based, Human. Conditions: HCAEC, 0.001 μg/mL to 10 μg/mL Ciglitazone, after 24 hours, FIG. 2c. As for the experimental part:
Ciglitazone cytotoxicity against HCAECs was evaluated by seeding 24 well cell culture plates with 5.0×10^5 HCAE cells/mL of cell culture media containing from 0.001 μg/mL to 10 μg/mL of Ciglitazone. Samples were taken after 24 hours and tested for lactate dehydrogenase […] concentration using methods known to those having ordinary skill in the art. Elevated LDL levels indicate cytotoxicity. FIG. 2c graphically depicts the cytotoxicity testing results.

Take `CC1(COc2ccc(CC3SC(=O)NC3=O)cc2)CCCCC1` (stereo not drawn) [Ciglitazone]: the inhibition at 10 µg/mL is over 50% in data set [1] (10 μg/mL Ciglitazone) and about 100% in data set [2] (10 μg/mL Ciglitazone). The molecule further showed an inhibition at 50 µg/mL in data set [1] (50 μg/mL Ciglitazone) of about 100%. Besides, the “cytotoxicity (lactate dehydrogenase concentration)” value in the data set on HCASMCs and with HCAECs was “No cytotoxicity was detected” throughout. The molecule also had an inhibition at 5 µg/mL in data set [2] (5 μg/mL Ciglitazone) of over 50%.

A word on the inhibition: it is the percentage by which the read-out fell short of the control.
